# Measured values: patent publication US20100040706A1, “METHOD OF ANTI-AGEING COSMETIC CARE BY STIMULATION OF SURVIVIN EXPRESSION” (LVMH RECHERCHE, priority 2008, published 2010)
# System: survivin
# Assay: Survivin ELISA assay on normal human keratinocyte cultures, related to total proteins (BCA)
# Type: cell-based
# Conditions: forskolin 4 μg/ml (10 μM)
# Procedure: The normal human keratinocytes are cultured in 75 cm^2 flasks, in an incubator at 37° C. under a humid atmosphere containing 5% CO2, in serum-free keratinocyte medium supplemented with EGF (Epidermal Growth Factor) and with BPE (Bovine Pituitary Extract) (KSFMc) (Gibco ref: 17005-034+37000-015). The cells are seeded (day D0) into 48-well microplates in a proportion of 50 000 cells in 500 μL of medium per well. After incubation for 24 hours (day D1), the cells have become adherent and the treatment step is then carried out. The seeding medium is removed and the treatment medium containing the ingredients to be evaluated at the various concentrations, or the excipient thereof (for example DMSO) in the same proportion, is then added to each culture well. A peak of survivin expression by the cells is observed after treatment for 16 hours. The wells are then rinsed with PBS. Half the wells of the microplate are used to lyse the keratinocytes and to assay the intracellular survivin. […] The total proteins are assayed using a BCA colorimetric test (reference: BC Assay Kit, Uptima Interchim), by measuring absorbance at 570 nm. […] After the enzyme reaction has been blocked with sulfuric acid, the survivin is quantified by measuring absorbance at 450 nm.
smiles,measurement,setting,value
"C=C[C@@]1(C)CC(=O)[C@]2(O)[C@@]3(C)[C@@H](O)CCC(C)(C)[C@@H]3[C@H](O)[C@H](OC(C)=O)[C@@]2(C)O1 [Forskolin, forskolin]",% activation,"16 h, solvent control = 100%",147.9%
same,Survivin,"16 h treatment, normal human keratinocytes",7.27 pg/mg proteins
